# Marks after values point to notes of the source that are not given here.
# Test system: cardiac cytokine protein levels
# Assay: Cardiac cytokine protein levels by Bio-Plex multiplex assay in aged WT mice
# Type: in vivo, mouse
# Protocol: There are 8 different sets of in vivo experiments in this study: • A) Phenotypic characterisation of the heart and blood vessels in global IRAP knockout mice and their WT controls treated for 4 weeks with Angiotensin (Ang) II (800 ng/kg/min; s.c.) where mouse hearts and blood vessels were compared to tissue obtained from young WT and IRAP^−/− mice treated with saline. • B) Prevention of Ang II-induced changes in the cardiovascular system following IRAP inhibitor treatment. In the prevention model, WT mice were treated with Ang II (800 ng/kg/min; s.c.)±the IRAP inhibitor (HFI-419; 500 ng/kg/min for 28 days) or HFI-vehicle (1 DMSO:3 HBC). • C) Phenotypic characterisation of the aged heart, kidney and blood vessels in the global IRAP knockout mice where aged WT and IRAP^−/− mouse hearts, kidneys and blood vessels were compared to tissue obtained from young WT and IRAP^−/− mice. • D) Reversal of the age-induced changes in the cardiovascular system following IRAP inhibitor treatment. In the reversal model, aged WT mice were treated with either saline, IRAP inhibitor (HFI-419 at 500 ng/kg/min; compound 1 at 500 ng/kg/min; compound 2 at 50 ng/kg/min) or HFI-vehicle (1 DMSO: 3 HBC) for 4 weeks. • E) Prevention of ischemic-reperfusion injury in isolated hearts taken from aged global IRAP knockout mice and aged IRAP inhibitor (HFI-419 at 500 ng/kg/min; s.c.) treated WT mice compared to age-matched vehicle-treated (1 DMSO:3 HBC; s.c.) WT controls. • F) Phenotypic characterization of cardiac function using echocardiography in the aged global IRAP knockout mice compared to aged and young WT mice. • G) Phenotypic characterization of liver steatosis in IRAP knockout mice in a high fat diet (HFD) model. • H) Reversal of the salt-induced fibrosis in the liver following IRAP inhibitor treatment.
# The levels of cytokines in the heart ventricles and apex were detected by using the Bio-Plex multiplex assay (Bio-rad). Tissues were snap-frozen and homogenized with a Bio-Plex cell lysis kit (Biorad) according to the manufacturer's instructions. Briefly, tissues were washed once with 300 μl of wash buffer and homogenized in lysing solutions using Tissue Lyser (Qiagen). Samples were left on ice for 30 min and centrifuged at 6,000×g for 20 min at 4° C. Supernatant was collected and protein content was determined using Biorad protein assay (Biorad). 500 μg/ml of protein were used to detect the levels of cytokines. A panel of Bio-Plex Pro™ Mouse Cytokine Standard 23-Plex, Group I (IL-1α, IL-1β, IL-2, IL-3, IL-4, IL-5, IL-6, IL-9, IL-10, IL-12(p40), IL-12(p70), IL-13, IL-17A, Eotaxin, G-CSF, GM-CSF, IFN-γ, KC, MCP-1, MIP-1α, MIP-1β, RANTES, TNFα) was used, containing 23 different antibodies covalently coupled to the beads. 50 μl of sample (500 μg/ml) or known standard (200-900 μg/ml) was added to wells of a 96-well plate which was pre-coated with the diluted coupled beads specific for each antibody and incubated at RT with shaking at 300 RPM for 30 min in the dark. After washing away any unbound substances, biotinylated detection antibodies were added to create a sandwich complex and the plate was incubated for 30 min with shaking at 300 RPM in the dark at RT. Following three washes, the final detection complex was formed with the addition of streptavidin-phycoerythrin conjugate and incubated for 10 min in the dark at RT with shaking at 300 RPM. Following 3 washes with […], beads were resuspended in 125 μl of assay buffer. The samples were read using Bio-Plex MAGPIX Multiplex Reader (Bio-Plex Suspension System). Data were calculated by the Bio-Plex Manager software.
# [1] = hearts of HFI-419-treated aged WT mice, mean ± s.e.m
# [2] = relative ratio to mean of vehicle-treated aged WT
compound,measurement,setting,value
CCOC(=O)C1=C(NC(C)=O)Oc2cc(O)ccc2C1c1cccnc1 (centres unmarked) [HFI-419],pro-inflammatory cytokines in heart,"aged WT mice, HFI-419 4 weeks vs vehicle, FIG. 14, Table 1",did not increase
same,"anti-inflammatory cytokines in heart, including IL-4, IL-9 and IL-12p40","aged WT mice, HFI-419 4 weeks vs vehicle, Table 1",marked increases
same,CCL-3 (MIP-1a) cardiac protein level,[1],2.493 ± 0.35 pg/mL
same,CCL-4 (MIP-1b) cardiac protein level,[1],92.74 ± 10.92 pg/mL
same,CCL-5 (RANTES) cardiac protein level,[1],2.839 ± 0.21 pg/mL
same,CCL-11 (Eotaxin) cardiac protein level,[1],140.3 ± 8.18 pg/mL
same,CXCL-1 (KC) cardiac protein level,[1],6.859 ± 0.34 pg/mL
same,G-CSF cardiac protein level,[1],1.912 ± 0.08 pg/mL
same,GM-CSF cardiac protein level,[1],38.18 ± 1.37 pg/mL
same,IL-1a cardiac protein level,[1],7.61 ± 0.56 pg/mL
same,IL-1b cardiac protein level,[1],69.83 ± 3.75 pg/mL
same,IL-4 cardiac protein level,[1],2.676 ± 0.06 pg/mL
same,IL-5 cardiac protein level,[1],3.96 ± 0.14 pg/mL
same,IL-6 cardiac protein level,[1],2.766 ± 0.15 pg/mL
same,IL-9 cardiac protein level,[1],557.8 ± 31.03 pg/mL
same,IL-10 cardiac protein level,[1],40.13 ± 1.36 pg/mL
same,IL-12 p40 cardiac protein level,[1],4.887 ± 0.28 pg/mL
same,IL-12 p70 cardiac protein level,[1],23.49 ± 1.83 pg/mL
same,IL-13 cardiac protein level,[1],90.19 ± 2.93 pg/mL
same,IL-17A cardiac protein level,[1],8.068 ± 0.29 pg/mL
same,L-2 cardiac protein level,[1],5.849 ± 0.78 pg/mL
same,M-CSF (IL-3) cardiac protein level,[1],1.562 ± 0.11 pg/mL
same,TNF-a cardiac protein level,[1],219.7 ± 9.76 pg/mL
same,CCL-3 (MIP-1a) Ratio of HFI to Vehicle,[2],0.88
same,CCL-4 (MIP-1b) Ratio of HFI to Vehicle,[2],0.78
same,CCL-5 (RANTES) Ratio of HFI to Vehicle,[2],1.03
same,CCL-11 (Eotaxin) Ratio of HFI to Vehicle,[2],1.29
same,CXCL-1 (KC) Ratio of HFI to Vehicle,[2],1.18
same,G-CSF Ratio of HFI to Vehicle,[2],1.02
same,GM-CSF Ratio of HFI to Vehicle,[2],0.99
same,IL-1a Ratio of HFI to Vehicle,[2],1.03
same,IL-1b Ratio of HFI to Vehicle,[2],1.16
same,IL-4 Ratio of HFI to Vehicle,[2],1.61**
same,IL-5 Ratio of HFI to Vehicle,[2],0.98
same,IL-6 Ratio of HFI to Vehicle,[2],0.98
same,IL-9 Ratio of HFI to Vehicle,[2],1.19*
same,IL-10 Ratio of HFI to Vehicle,[2],1.09
same,IL-12 p40 Ratio of HFI to Vehicle,[2],1.31
same,IL-12 p70 Ratio of HFI to Vehicle,[2],0.88
same,IL-13 Ratio of HFI to Vehicle,[2],0.96
same,IL-17A Ratio of HFI to Vehicle,[2],0.95
same,L-2 Ratio of HFI to Vehicle,[2],1.12
same,M-CSF (IL-3) Ratio of HFI to Vehicle,[2],1.02
same,TNF-a Ratio of HFI to Vehicle,[2],0.92

# — patent publication US11834663B2, “Fibrotic treatment” (Monash University, priority 2015, dated 2023)
